In patent publication US10385069B2, “Imidazo[2,1-B]thiazole and 5,6-dihydroimidazo[2,1-B]thiazole derivatives useful as S100-inhibitors” (Active Biotech AB, priority 2015, dated 2019):

Target: T1, interaction between biotinylated human S100A9 and human RAGE-Fc (Homo sapiens, UniProt P06702)
T1 construct: made in house; host or cells: E. coli
T1 sequence (P06702 1-114): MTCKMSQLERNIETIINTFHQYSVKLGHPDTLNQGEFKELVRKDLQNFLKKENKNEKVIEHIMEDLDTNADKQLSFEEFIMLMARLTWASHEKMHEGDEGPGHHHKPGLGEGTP
Test: AlphaScreen inhibition assay, biot-hS100A9:hRAGE-Fc
Format: binding
Settings: biot-hS100A9 pre-incubated with compound 1 h, assay buffer with CaCl2 and ZnCl2
Excerpt: Inhibition Assay, Biot-hS100A9:hRAGE-Fc
The AlphaScreen (Amplified Luminescent Proximity Homogeneous Assay) contains two types of beads, Alpha Donor beads and Acceptor beads (PerkinElmer). Upon laser excitation at 680 nm a photosensitizer in the Donor bead converts ambient oxygen to a more excited singlet state. The singlet oxygen molecule diffuses (maximum 200 nm) to react with a thioxene derivative in the Acceptor bead and generates a chemiluminescence reaction. Fluorophores in the Acceptor bead subsequently emit light at 520-620 nm which can be detected in the EnVision® Multilabel plate Reader (PerkinElmer). The beads are light sensitive and all work with the beads is performed under subdued light conditions or using green filters on light sources (Roscolux Chroma Green #389, Rosco).
In the AlphaScreen Inhibition Assay described here, protein A (Staphylococcus aureus) conjugated Acceptor beads are used together with streptavidin coated Donor beads (Perkin Elmer 6760617M). The Acceptor beads are pre-incubated with Fc-tagged recombinant human RAGE (rhRAGE-Fc) allowing binding of the rhRAGE-Fc to protein A on the beads. Biotinylated human S100A9 (biot-hS100A9) is pre-incubated with the low molecular test compounds. The pre-mixes are then added to the wells of a micro-plate and incubated allowing interaction between biot-hS100A9 and rhRAGE-Fc. Subsequent addition of streptavidin coated Donor beads causes binding of the streptavidin to the biotinylated hS100A9. After an additional incubation the signal is measured.
Without inhibitory compounds, the interaction of biot-hS100A9 to rhRAGE-Fc will bring the Acceptor and Donor beads in close proximity thus generating a high signal. With an inhibitor present the complex will not form resulting in a decreased signal. The assay is illustrated in FIG. 1.
Chemicals and Reagents. • AlphaScreen® General IgG (Protein A) Detection Kit, (PerkinElmer 6760617M) • HBS-P buffer (GE Healthcare, BR-1003-68) • HBS-N buffer (GE Healthcare, BR-1003-69) • CaCl2 in HBS-P • ZnCl2 in Milli-Q water • DMSO • Biotinylated hS100A9, (biotinylated via cystein by EZ-link Iodoacetyl-PEG2-Biotin reagent (Pierce no. 21334), in HBS-N • rhRAGE-Fc (R&D Systems, 1145-RG-50), in HBS-P
The AlphaScreen assay method is used for screening of the inhibitory effect of different compound samples at fixed concentrations or for IC50 determination by varying the compound concentrations. Samples of test compounds and references are prepared from solutions in DMSO. Relevant reference inhibitors and DMSO are used as controls for defined inhibition and non-inhibition, respectively in the assay. The percent inhibition in assay for test compounds and references are calculated by comparing their obtained assay signals with the signal values for the control with only DMSO (no compound).
Assay concentration of biotinylated hS100A9 and rhRAGE-Fc are batch dependent, and are determined and defined by separate cross-titration experiments using this AlphaScreen inhibition method to verify the optimal setup regarding signal strength and achievement of a defined inhibition with relevant reference compounds. The Final assay concentrations of Acceptor and Donor beads are 20 μg/mL.
Assay buffer is prepared by adding CaCl2 and ZnCl2 to HBS-P and is used freshly prepared in the experiment.
Biotin-hS100A9 solution for the experiment is prepared by dilution of appropriate amount of stock solution biot-hS100A9 in assay buffer (with CaCl2 and ZnCl2) and incubation in room temperature for 30 minutes.
rhRAGE-Fc solution for the experiment is prepared by dilution appropriate amount of rhRAGE-Fc stock in assay buffer.
Protein A Acceptor beads are diluted in assay buffer and are added to an equal volume of the prepared diluted rhRAGE-Fc solution. The beads are light sensitive. The vial is covered with aluminum foil and incubated at room temperature in the dark until biot-hS100A9+compound incubation is finished (see below). […]

Row | IC50 [nM] | SMILES
1 | 1200 | CC1CCCc2c1sc1nc(C(=O)NS(C)(=O)=O)cn21 (single isomer, unassigned) [Example 48, N-Methanesulfonyl-9-methyl-7-thia-2,5-diazatricyclo[6.4.0.0^2,6]dodeca-1(8),3,5-triene-4-carboxamide]
2 | 1010 | CC1CCCc2c1sc1nc(C(=O)NS(C)(=O)=O)cn21 (single isomer, unassigned) [Example 49, N-Methanesulfonyl-9-methyl-7-thia-2,5-diazatricyclo[6.4.0.0^2,6]dodeca-1(8),3,5-triene-4-carboxamide]
3 | 1300 | O=C(O)[C@@H]1CN2C(=N1)Sc1c2ccc(F)c1Cl (single isomer, unassigned) [Example 236]
4 | 680 | O=C(O)[C@H]1CN2C(=N1)Sc1c2ccc(F)c1Cl (single isomer, unassigned) [Example 237]
5 | 170 | C[C@]1(C(=O)O)CN2C(=N1)Sc1c2ccc(F)c1Cl (single isomer, unassigned) [Example 279a]
6 | 390 | C[C@@]1(C(=O)O)CN2C(=N1)Sc1c2ccc(F)c1Cl (single isomer, unassigned) [Example 279b]
7 | 130 | O=C(O)c1cn2c(n1)sc1c(Cl)c(Cl)ccc12 [Example 1, 9,10-Dichloro-7-thia-2,5-diazatricyclo[6.4.0.0^2,6]dodeca-1(8),3,5,9,11-pentaene-4-carboxylic acid]
8 | 250 | O=C(O)c1cn2c(n1)sc1c(Cl)c(F)ccc12 [Example 2, 9-Chloro-10-fluoro-7-thia-2,5-diazatricyclo[6.4.0.0^2,6]dodeca-1(8),3,5,9,11-pentaene-4-carboxylic acid]
9 | 350 | O=C(O)c1cn2c(n1)sc1c(F)c(Cl)ccc12 [Example 3, 10-Chloro-9-fluoro-7-thia-2,5-diazatricyclo[6.4.0.0^2,6]dodeca-1(8),3,5,9,11-pentaene-4-carboxylic acid]
10 | 1160 | O=C(O)c1cn2c(n1)sc1cc(OC(F)(F)F)ccc12 [Example 4, 10-(Trifluoromethoxy)-7-thia-2,5-diazatricyclo[6.4.0.0^2,6]dodeca-1(8),3,5,9,11-pentaene-4-carboxylic acid]
11 | 1300 | O=C(O)c1cn2c(n1)sc1c(Cl)cccc12 [Example 5, 9-Chloro-7-thia-2,5-diazatricyclo[6.4.0.0^2,6]dodeca-1(8),3,5,9,11-pentaene-4-carboxylic acid]
12 | 2160 | O=C(O)c1cn2c(n1)sc1cccc(Cl)c12 [Example 7, 12-Chloro-7-thia-2,5-diazatricyclo[6.4.0.0^2,6]dodeca-1(8),3,5,9,11-pentaene-4-carboxylic acid]
13 | 2700 | O=C(O)c1cn2c(n1)sc1cc(Cl)ccc12 [Example 8, 10-Chloro-7-thia-2,5-diazatricyclo[6.4.0.0^2,6]dodeca-1(8),3,5,9,11-pentaene-4-carboxylic acid]
14 | 2970 | O=C(O)c1cn2c(n1)sc1cc(F)ccc12 [Example 10, 10-Fluoro-7-thia-2,5-diazatricyclo[6.4.0.0^2,6]dodeca-1(8),3,5,9,11-pentaene-4-carboxylic acid]
15 | 5020 | Cc1ccc2c(c1)sc1nc(C(=O)O)cn12 [Example 11, 10-Methyl-7-thia-2,5-diazatricyclo[6.4.0.0^2,6]dodeca-1(8),3,5,9,11-pentaene-4-carboxylic acid]
16 | 5610 | O=C(O)c1cn2c(n1)sc1ccc(Cl)cc12 [Example 12, 11-Chloro-7-thia-2,5-diazatricyclo[6.4.0.0^2,6]dodeca-1(8),3,5,9,11-pentaene-4-carboxylic acid]
17 | 1300 | O=C(O)c1cn2c(n1)sc1cc(Br)ccc12 [Example 13, 10-Bromo-7-thia-2,5-diazatricyclo[6.4.0.0^2,6]dodeca-1(8),3,5,9,11-pentaene-4-carboxylic acid]
18 | 2140 | O=C(O)c1cn2c(n1)sc1cc(C(F)(F)F)ccc12 [Example 14, 10-(Trifluoromethyl)-7-thia-2,5-diazatricyclo[6.4.0.0^2,6]dodeca-1(8),3,5,9,11-pentaene-4-carboxylic acid]
19 | 1590 | O=C(O)c1cn2c(n1)sc1cc(Cl)cc(Cl)c12 [Example 16, 10,12-Dichloro-7-thia-2,5-diazatricyclo[6.4.0.0^2,6]dodeca-1(8),3,5,9,11-pentaene-4-carboxylic acid]
20 | 3410 | O=C(O)c1nc2sc3cc(OC(F)(F)F)ccc3n2c1Br [Example 17, 3-Bromo-10-(trifluoromethoxy)-7-thia-2,5-diazatricyclo[6.4.0.0^2,6]dodeca-1(8),3,5,9,11-pentaene-4-carboxylic acid]
21 | 1030 | CC(C)(C)Nc1c(C(=O)O)nc2sc3cc(OC(F)(F)F)ccc3n12 [Example 18, 3-(tert-Butylamino)-10-(trifluoromethoxy)-7-thia-2,5-diazatricyclo[6.4.0.0^2,6]dodeca-1(8),3,5,9,11-pentaene-4-carboxylic acid]
22 | 720 | O=C(O)Cc1cn2c(n1)sc1c(Cl)c(Cl)ccc12 [Example 19, 2-{9,10-Dichloro-7-thia-2,5-diazatricyclo[6.4.0.0^2,6]dodeca-1(8),3,5,9,11-pentaen-4-yl}acetic acid]
23 | 2210 | CS(=O)(=O)NC(=O)c1cn2c(n1)sc1cc(OC(F)(F)F)ccc12 [Example 20, N-Methanesulfonyl-10-(trifluoromethoxy)-7-thia-2,5-diazatricyclo[6.4.0.0^2,6]dodeca-1(8),3,5,9,11-pentaene-4-carboxamide]
24 | 180 | CS(=O)(=O)NC(=O)c1cn2c(n1)sc1c(Cl)c(Cl)ccc12 [Example 21, 9,10-Dichloro-N-methanesulfonyl-7-thia-2,5-diazatricyclo[6.4.0.0^2,6]dodeca-1(8),3,5,9,11-pentaene-4-carboxamide]
25 | 280 | O=C(NS(=O)(=O)C1CC1)c1cn2c(n1)sc1c(Cl)c(Cl)ccc12 [Example 22, 9,10-Dichloro-N-(cyclopropanesulfonyl)-7-thia-2,5-diazatricyclo[6.4.0.0^2,6]dodeca-1(8),3,5,9,11-pentaene-4-carboxamide]
26 | 320 | COCCS(=O)(=O)NC(=O)c1cn2c(n1)sc1c(Cl)c(Cl)ccc12 [Example 23, 9,10-Dichloro-N-(2-methoxyethanesulfonyl)-7-thia-2,5-diazatricyclo[6.4.0.0^2,6]dodeca-1(8),3,5,9,11-pentaene-4-carboxamide]
27 | 340 | CCS(=O)(=O)NC(=O)c1cn2c(n1)sc1c(Cl)c(Cl)ccc12 [Example 24, 9,10-Dichloro-N-(ethanesulfonyl)-7-thia-2,5-diazatricyclo[6.4.0.0^2,6]dodeca-1(8),3,5,9,11-pentaene-4-carboxamide]
28 | 180 | O=C(NS(=O)(=O)CC(F)(F)F)c1cn2c(n1)sc1c(Cl)c(Cl)ccc12 [Example 25, 9,10-Dichloro-N-(2,2,2-trifluoroethanesulfonyl)-7-thia-2,5-diazatricyclo[6.4.0.0^2,6]dodeca-1(8),3,5,9,11-pentaene-4-carboxamide]
29 | 420 | O=C(NS(=O)(=O)C(F)(F)F)c1cn2c(n1)sc1c(Cl)c(Cl)ccc12 [Example 26, 9,10-Dichloro-N-trifluoromethanesulfonyl-7-thia-2,5-diazatricyclo[6.4.0.0^2,6]dodeca-1(8),3,5,9,11-pentaene-4-carboxamide]
